Experimental data: PubChem BioAssay AID220 (DTP/NCI, 2004)
Several values for one entry are separate records, joined by “and”; a condition that tells them apart may be missing. Equal entries are not always repeated. Results filed as inconclusive are left out.

System: CD8F1 mice, subcutaneous mammary adenocarcinoma, T/C%
Assay: NCI In Vivo Anticancer Drug Screen. Data for tumor model Mammary Adenocarcinoma CD8F1 (subcutaneous) in CD8F1
Conditions: higher = larger tumour
Summary of the method: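 Transplantable tumors were established in mice, animals were dosed with compound or vehicle, and survival or tumor size was then measured in both groups. The treated result was divided by the control result.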

[1] = endpoint: median tumor weight change, dose: 125.0 mg/kg/injection, schedule: Q01DX001 (ip), vehicle: saline
[2] = endpoint: median tumor weight change, dose: 250.0 mg/kg/injection, schedule: Q01DX001 (ip), vehicle: saline
[3] = endpoint: median tumor weight change, dose: 500.0 mg/kg/injection, schedule: Q01DX001 (ip), vehicle: saline
[4] = endpoint: median tumor weight change, dose: 1000.0 mg/kg/injection, schedule: Q01DX001 (ip), vehicle: saline
[5] = endpoint: median tumor weight (est.), dose: 100.0 mg/kg/injection, schedule: Q07DX005 (ip), vehicle: Klucel (hydroxypropylcellulose) (HPC)
[6] = endpoint: median tumor weight (est.), dose: 200.0 mg/kg/injection, schedule: Q07DX005 (ip), vehicle: Klucel (hydroxypropylcellulose) (HPC)
[7] = endpoint: median tumor weight (est.), dose: 400.0 mg/kg/injection, schedule: Q07DX005 (ip), vehicle: Klucel (hydroxypropylcellulose) (HPC)

Compound: O=C(O)C1CC(O)CN1 (stereo unspecified)
- T/C [1]: 71 % of control
- T/C [2]: 64 % of control and 78 % of control
- T/C [3]: 59 % of control and 69 % of control
- T/C [4]: 66 % of control and 70 % of control
- T/C (endpoint: median tumor weight change, dose: 2000.0 mg/kg/injection, schedule: Q01DX001 (ip), vehicle: saline): 13 % of control and 15 % of control

Compound: CC(=O)OCC1OC(n2ncc(=O)[nH]c2=O)C(OC(C)=O)C1OC(C)=O (stereo unspecified)
- T/C [1]: 165 % of control
- T/C [2]: 111 % of control
- T/C [3]: 162 % of control
- T/C [4]: 117 % of control

Compound: C1OC1CO[C@@H]1CO[C@H]2[C@@H]1OC[C@H]2OCC1CO1 (stereo partly specified)
- T/C (endpoint: median tumor weight (est.), dose: 12.5 mg/kg/injection, schedule: Q07DX005 (ip), vehicle: Klucel (hydroxypropylcellulose) (HPC)): 44 % of control
- T/C (endpoint: median tumor weight (est.), dose: 25.0 mg/kg/injection, schedule: Q07DX005 (ip), vehicle: Klucel (hydroxypropylcellulose) (HPC)): 53 % of control
- T/C (endpoint: median tumor weight (est.), dose: 25.0 mg/kg/injection, schedule: Q07DX005 (ip), vehicle: suspension in saline): 108 % of control
- T/C (endpoint: median tumor weight (est.), dose: 50.0 mg/kg/injection, schedule: Q07DX005 (ip), vehicle: Klucel (hydroxypropylcellulose) (HPC)): 84 % of control
- T/C (endpoint: median tumor weight (est.), dose: 50.0 mg/kg/injection, schedule: Q07DX005 (ip), vehicle: suspension in saline): 64 % of control
- T/C [5]: 108 % of control
- T/C (endpoint: median tumor weight (est.), dose: 100.0 mg/kg/injection, schedule: Q07DX005 (ip), vehicle: suspension in saline): 48 % of control
- T/C [6]: 57 % of control
- T/C (endpoint: median tumor weight (est.), dose: 200.0 mg/kg/injection, schedule: Q07DX005 (ip), vehicle: suspension in saline): 51 % of control
- T/C [7]: 16 % of control
- T/C (endpoint: median tumor weight (est.), dose: 400.0 mg/kg/injection, schedule: Q07DX005 (ip), vehicle: suspension in saline): 9 % of control

Compound: S=C1CCCCN1
- T/C (endpoint: median tumor weight change, dose: 37.5 mg/kg/injection, schedule: Q01DX001 (ip), vehicle: distilled water + Tween-80 + alcohol): 73 % of control
- T/C (endpoint: median tumor weight change, dose: 75.0 mg/kg/injection, schedule: Q01DX001 (ip), vehicle: distilled water + Tween-80 + alcohol): 111 % of control
- T/C (endpoint: median tumor weight change, dose: 150.0 mg/kg/injection, schedule: Q01DX001 (ip), vehicle: distilled water + Tween-80 + alcohol): 86 % of control

Compound: CCC1(O)CC2CN(CCc3c([nH]c4ccccc34)C(C(=O)OC)(c3cc4c(cc3OC)N(C)C3C(O)(C(=O)NCCSSCCNC(=O)C5(O)C(O)C6(CC)C=CCN7CCC8(c9cc(C%10(C(=O)OC)CC%11CN(CCc%12c%10[nH]c%10ccccc%12%10)CC(O)(CC)C%11)c(OC)cc9N(C)C58)C76)C(O)C5(CC)C=CCN6CCC43C65)C2)C1 (stereo unspecified)
- T/C (endpoint: median tumor weight change, dose: 1.9 mg/kg/injection, schedule: Q01DX001 (ip), vehicle: saline): 45 % of control

Compound: COC1=CC(=O)N(C(=O)C2CSC(C(CO)NC(=O)c3csc(/C=N/O)n3)=N2)C1 (stereo unspecified)
- T/C [5]: 83 % of control
- T/C [6]: 102 % of control
- T/C [7]: 100 % of control

Compound: N#CC(=C1SCS1)[N+](=O)[O-]
- T/C (endpoint: median tumor weight change, dose: 7.5 mg/kg/injection, schedule: Q01DX001 (ip), vehicle: saline with Tween-80): 83 % of control
- T/C (endpoint: median tumor weight change, dose: 15.0 mg/kg/injection, schedule: Q01DX001 (ip), vehicle: saline with Tween-80): 90 % of control
- T/C (endpoint: median tumor weight change, dose: 30.0 mg/kg/injection, schedule: Q01DX001 (ip), vehicle: saline with Tween-80): 152 % of control
- T/C (endpoint: median tumor weight change, dose: 60.0 mg/kg/injection, schedule: Q01DX001 (ip), vehicle: saline with Tween-80): 48 % of control

Compound: Cc1c2c(c(O)c3c(O)cccc13)C(=O)C1(O)C(O)=C(C(=O)NCNc3ccc(C(N)=O)cn3)C(=O)C(N(C)C)C1C2 (stereo unspecified)
- T/C (endpoint: median tumor weight change, dose: 15.62 mg/kg/injection, schedule: Q01DX001 (ip), vehicle: saline): 82 % of control
- T/C (endpoint: median tumor weight change, dose: 31.25 mg/kg/injection, schedule: Q01DX001 (ip), vehicle: saline): 70 % of control
- T/C (endpoint: median tumor weight change, dose: 62.5 mg/kg/injection, schedule: Q01DX001 (ip), vehicle: saline): 43 % of control
- T/C [1]: 34 % of control

Compound: c1csc(C[N+]23CN4CN(CN(C4)C2)C3)c1
- T/C [2]: 80 % of control
